Measurements as given in patent publication US10633386B2, “BET protein degraders” (THE REGENTS OF THE UNIVERSITY OF MICHIGAN, priority 2016, dated 2020).

How the values were obtained:
MDA-MB-231 = assay: Cell growth inhibition (CellTiter-Glo), MDA-MB-231; type: cell-based, human; details: MDA-MB-231 cells, 4 days
Procedure: (§1) Cell growth inhibitory activity of representative BET bromodomain degraders was determined using CellTiter-Glo® Luminescent Cell Viability Assay. Cells were seeded in 384-well white opaque cell culture plates at a density of 2,000 cells/well with serially diluted compounds and incubated at 37° C. in an atmosphere of 95% air and 5% CO2 for 4 days. Cell viability was determined using the CellTiter-Glo® Luminescent Cell Viability Assay Kit (Promega, Madison, Wis.) according to the manufacture's instruction. Briefly, a volume of CellTiter-Glo® Reagent equal to the volume of cell culture medium was added to each well, and then the plates were incubated at room temperature for 10-20 minutes. The luminescent signal was measured using a Tecan Infinite M1000 multimode microplate reader (Tecan, Morrisville, N.C.). The half maximal inhibitory concentration (IC50) was calculated using the GraphPad Prism 5 software (GraphPad Software, La Jolla, Calif.).

MOLM-13 = assay: Cell growth inhibition (CellTiter-Glo), MOLM-13; type: cell-based; details: MOLM-13 cells, 4 days
Procedure: as §1

| SMILES | IC50 (MDA-MB-231; Homo sapiens, MDA-MB-231, 96 h) | IC50 (MOLM-13; Homo sapiens, MOLM-13, 96 h) | IC50 (MOLM-13) | IC50 (MDA-MB-231) |
| --- | --- | --- | --- | --- |
| CCn1nc(C2CC2)cc1Nc1nc(C(=O)NCCCCNC(=O)COc2cccc3c2C(=O)N(C2CCC(=O)NC2=O)C3=O)nc2[nH]c3cc(-c4c(C)noc4C)c(OC)cc3c12 (stereo not shown) [Cpd. No. 1] | 49.5 nM | 12.2 nM | – | – |
| CCn1nc(C2CC2)cc1Nc1nc(C(=O)NCCCOCCOCCOCCCNC(=O)COc2cccc3c2C(=O)N(C2CCC(=O)NC2=O)C3=O)nc2[nH]c3cc(-c4c(C)noc4C)c(OC)cc3c12 (stereo not shown) [Cpd. No. 2] | 75.6 nM | 16.3 nM | – | – |
| CCn1nc(C2CC2)cc1Nc1nc(C(=O)NCCCOCCOCCOCCCNC(=O)CNc2cccc3c2C(=O)N(C2CCC(=O)NC2=O)C3=O)nc2[nH]c3cc(-c4c(C)noc4C)c(OC)cc3c12 (stereo not shown) [Cpd. No. 3] | 94.8 nM | 18.2 nM | – | – |
| CCn1nc(C2CC2)cc1Nc1nc(C(=O)NCCOCCOCCOCCOc2cccc3c2C(=O)N(C2CCC(=O)NC2=O)C3=O)nc2[nH]c3cc(-c4c(C)noc4C)c(OC)cc3c12 (stereo not shown) [Cpd. No. 5] | 50 nM | 6.9 nM | – | – |
| CCn1nc(C2CC2)cc1Nc1nc(C(=O)NCCNc2cccc3c2C(=O)N(C2CCC(=O)NC2=O)C3=O)nc2[nH]c3cc(-c4c(C)noc4C)c(OC)cc3c12 (stereo not shown) [Cpd. No. 7] | 453 nM | 65 nM | – | – |
| CCn1nc(C2CC2)cc1Nc1nc(C(=O)NCCCNc2cccc3c2C(=O)N(C2CCC(=O)NC2=O)C3=O)nc2[nH]c3cc(-c4c(C)noc4C)c(OC)cc3c12 (stereo not shown) [Cpd. No. 8] | 57.6 nM | 6.3 nM | – | – |
| CCn1nc(C2CC2)cc1Nc1nc(C(=O)NCCOCCNc2cccc3c2C(=O)N(C2CCC(=O)NC2=O)C3=O)nc2[nH]c3cc(-c4c(C)noc4C)c(OC)cc3c12 (stereo not shown) [Cpd. No. 12] | 109 nM | 17.8 nM | – | – |
| CCn1nc(C2CC2)cc1Nc1nc(C(=O)NCCOCCOCCNc2cccc3c2C(=O)N(C2CCC(=O)NC2=O)C3=O)nc2[nH]c3cc(-c4c(C)noc4C)c(OC)cc3c12 (stereo not shown) [Cpd. No. 13] | 267 nM | – | 8 nM | – |
| CCn1nc(C2CC2)cc1Nc1nc(C(=O)NCCOCCCc2cccc3c2CN(C2CCC(=O)NC2=O)C3=O)nc2[nH]c3cc(-c4c(C)noc4C)c(OC)cc3c12 (stereo not shown) [Cpd. No. 59] | 24.4 nM | 0.64 nM | – | – |
| CCn1nc(C2CC2)cc1Nc1nc(C(=O)NCCCCCc2cccc3c2C(=O)N(C2CCC(=O)NC2=O)C3=O)nc2[nH]c3cc(-c4c(C)noc4C)c(OC)cc3c12 (stereo not shown) [Cpd. No. 60] | 11.2 nM | 1.2 nM | – | – |
| CCn1nc(C2CC2)cc1Nc1nc(C(=O)NCCOCCOCCOCCCc2cccc3c2C(=O)N(C2CCC(=O)NC2=O)C3=O)nc2[nH]c3cc(-c4c(C)noc4C)c(OC)cc3c12 (stereo not shown) [Cpd. No. 61] | 69.6 nM | 1.5 nM | – | – |
| CCn1nc(C2CC2)cc1Nc1nc(C(=O)NCCOCCCc2cccc3c2C(=O)N(C2CCC(=O)NC2=O)C3=O)nc2[nH]c3cc(-c4c(C)noc4C)c(OC)cc3c12 (stereo not shown) [Cpd. No. 62] | 24.7 nM | 3.4 nM | – | – |
| CCn1nc(C2CC2)cc1Nc1nc(C(=O)NCCOCCOCCC(=O)Nc2cccc3c2CN(C2CCC(=O)NC2=O)C3=O)nc2[nH]c3cc(-c4c(C)noc4C)c(OC)cc3c12 (stereo not shown) [Cpd. No. 63] | 231 nM | 41.5 nM | – | – |
| CCn1nc(C2CC2)cc1Nc1nc(C(=O)NCCOCCOCCOCCC(=O)Nc2cccc3c2CN(C2CCC(=O)NC2=O)C3=O)nc2[nH]c3cc(-c4c(C)noc4C)c(OC)cc3c12 (stereo not shown) [Cpd. No. 64] | 98.7 nM | 23.6 nM | – | – |
| CCn1nc(C2CC2)cc1Nc1nc(C(=O)NCCCCCNc2cccc3c2C(=O)N(C2CCC(=O)NC2=O)C3=O)nc2[nH]c3cc(-c4c(C)noc4C)c(OC)cc3c12 (stereo not shown) [compound 10] | 4.8 nM | 0.9 nM | – | – |
| CCn1nc(C2CC2)cc1Nc1nc(C(=O)NCCCCCCNc2cccc3c2C(=O)N(C2CCC(=O)NC2=O)C3=O)nc2[nH]c3cc(-c4c(C)noc4C)c(OC)cc3c12 (stereo not shown) [compound 11] | 8 nM | 1.6 nM | – | – |
| CCn1nc(C2CC2)cc1Nc1nc(C(=O)NCCOCCOCCOCCNc2cccc3c2C(=O)N(C2CCC(=O)NC2=O)C3=O)nc2[nH]c3cc(-c4c(C)noc4C)c(OC)cc3c12 (stereo not shown) [compound 14] | 33 nM | 1.2 nM | – | – |
| CCn1nc(C2CC2)cc1Nc1nc(C(=O)NCCCOCCCCOCCCNc2cccc3c2C(=O)N(C2CCC(=O)NC2=O)C3=O)nc2[nH]c3cc(-c4c(C)noc4C)c(OC)cc3c12 (stereo not shown) [compound 15] | 1.7 nM | 0.7 nM | – | – |

| SMILES | IC50 (MDA-MB-231; Homo sapiens, MDA-MB-231, 96 h) | IC50 (MOLM-13; Homo sapiens, MOLM-13, 96 h) | IC50 (MOLM-13) | IC50 (MDA-MB-231) |
| --- | --- | --- | --- | --- |
| CCn1nc(C2CC2)cc1Nc1nc(C(=O)NCCOCCOCCOCCOCCOCCOCCOCCNc2cccc3c2C(=O)N(C2CCC(=O)NC2=O)C3=O)nc2[nH]c3cc(-c4c(C)noc4C)c(OC)cc3c12 (stereo not shown) [compound 16] | 128 nM | 10.2 nM | – | – |
| CCn1nc(C2CC2)cc1Nc1nc(CNCCCCNc2cccc3c2C(=O)N(C2CCC(=O)NC2=O)C3=O)nc2[nH]c3cc(-c4c(C)noc4C)c(OC)cc3c12 (stereo not shown) [compound 17] | 330 nM | 115 nM | – | – |
| CCn1nc(C2CC2)cc1Nc1nc(COCCCCNc2cccc3c2C(=O)N(C2CCC(=O)NC2=O)C3=O)nc2[nH]c3cc(-c4c(C)noc4C)c(OC)cc3c12 (stereo not shown) [compound 18] | 5.4 nM | 2.9 nM | – | – |
| CCn1nc(C2CC2)cc1Nc1nc(CNCCCCNc2cccc3c2CN(C2CCC(=O)NC2=O)C3=O)nc2[nH]c3cc(-c4c(C)noc4C)c(OC)cc3c12 (stereo not shown) [compound 19] | 1420 nM | 379 nM | – | – |
| CCn1nc(C2CC2)cc1Nc1nc(CNCCCOCCOCCOCCCNc2cccc3c2C(=O)N(C2CCC(=O)NC2=O)C3=O)nc2[nH]c3cc(-c4c(C)noc4C)c(OC)cc3c12 (stereo not shown) [compound 20] | 3.2 nM | 0.9 nM | – | – |
| CCn1nc(C2CC2)cc1Nc1nc(CNCCCOCCCCOCCCNc2cccc3c2C(=O)N(C2CCC(=O)NC2=O)C3=O)nc2[nH]c3cc(-c4c(C)noc4C)c(OC)cc3c12 (stereo not shown) [compound 21] | 543 nM | 84.6 nM | – | – |
| CCn1nc(C2CC2)cc1Nc1nc(C(=O)NCCOCCNc2cccc3c2CN(C2CCC(=O)NC2=O)C3=O)nc2[nH]c3cc(-c4c(C)noc4C)c(OC)cc3c12 (stereo not shown) [compound 22] | 63.8 nM | 12.4 nM | – | – |
| CCn1nc(C2CC2)cc1Nc1nc(C(=O)NCCOCCOCCNc2cccc3c2CN(C2CCC(=O)NC2=O)C3=O)nc2[nH]c3cc(-c4c(C)noc4C)c(OC)cc3c12 (stereo not shown) [compound 23] | 83.4 nM | 16.7 nM | – | – |
| CCn1nc(C2CC2)cc1Nc1nc(C(=O)NCCOCCOCCOCCNc2cccc3c2CN(C2CCC(=O)NC2=O)C3=O)nc2[nH]c3cc(-c4c(C)noc4C)c(OC)cc3c12 (stereo not shown) [compound 24] | 74.9 nM | 12.1 nM | – | – |
| CCn1nc(C2CC2)cc1Nc1nc(C(=O)NCCOCCOCCOCCOCCNc2cccc3c2CN(C2CCC(=O)NC2=O)C3=O)nc2[nH]c3cc(-c4c(C)noc4C)c(OC)cc3c12 (stereo not shown) [compound 25] | 25.1 nM | 3.5 nM | – | – |
| CCn1nc(C2CC2)cc1Nc1nc(C(=O)NCCOCCOCCNc2cccc3c2C(=O)N(C2CCC(=O)NC2=O)C3=O)nc2[nH]c3cc(-c4c(C)noc4C)c(OC)cc3c12 (stereo not shown) [compound 65] | – | – | 47.1 nM | 438 nM |
| CCn1nc(C2CC2)cc1Nc1nc(C(=O)NCCCCNc2cccc3c2CN(C2CCC(=O)NC2=O)C3=O)nc2[nH]c3cc(-c4c(C)noc4C)c(OC)cc3c12 (stereo not shown) [compound 66] | 275 nM | 47.3 nM | – | – |
| CCn1nc(C2CC2)cc1Nc1nc(C(=O)NCCCOCCOCCOCCCNc2cccc3c2CN(C2CCC(=O)NC2=O)C3=O)nc2[nH]c3cc(-c4c(C)noc4C)c(OC)cc3c12 (stereo not shown) [compound 67] | 2 nM | 0.7 nM | – | – |
| CCn1nc(C2CC2)cc1Nc1nc(C(=O)NCCCOCCOCCOCCNc2cccc3c2CN(C2CCC(=O)NC2=O)C3=O)nc2[nH]c3cc(-c4c(C)noc4C)c(OC)cc3c12 (stereo not shown) [compound 68] | 4.1 nM | 1.2 nM | – | – |
| CCn1nc(C2CC2)cc1Nc1nc(C(=O)NCCCOCCOCCNc2cccc3c2CN(C2CCC(=O)NC2=O)C3=O)nc2[nH]c3cc(-c4c(C)noc4C)c(OC)cc3c12 (stereo not shown) [compound 69] | 16.1 nM | 2.9 nM | – | – |
| CCn1nc(C2CC2)cc1Nc1nc(C(=O)NCCOCCOCCOCCOCCCc2cccc3c2CN(C2CCC(=O)NC2=O)C3=O)nc2[nH]c3cc(-c4c(C)noc4C)c(OC)cc3c12 (stereo not shown) [compound 70] | 41 nM | 8.5 nM | – | – |
| CCn1nc(C2CC2)cc1Nc1nc(C(=O)NCCCOCCOCCOCC#Cc2cccc3c2CN(C2CCC(=O)NC2=O)C3=O)nc2[nH]c3cc(-c4c(C)noc4C)c(OC)cc3c12 (stereo not shown) [compound 72] | 4.2 nM | 1.2 nM | – | – |
